Like-named read-outs stand apart in the source and are kept apart here.
What was measured:
[1] = test system: Copepodids (juvenile sea lice stage of Lepeophtheirus salmonis); test: Juvenile sea lice contact assay; conditions: read-out: Sea lice inhibition (% of dead+damaged copepodids); for inhibition at 0.01 µM: test concentration 10 nM
Protocol: Copepodids (juvenile sea lice stage of Lepeophtheirus salmonis) were exposed to seawater spiked with declining concentrations of a test compound (dissolved in a DMSO sea-water mixture). Sea lice inhibition (% of dead+damaged copepodids) was assessed after approximately 24 hours of continuous exposure. The vitality of used parasites was confirmed in a negative (solvent) control group.

[2] = test system: Mobile stages of sea lice (pre-adults, adults of Lepeophtheirus salmonis); test: Adult sea lice contact assay; conditions: read-out: EC50 (sea lice inhibition, dead+damaged)
Protocol: Mobile stages of sea lice (i.e., pre-adults, adults of Lepeophtheirus salmonis) were exposed to seawater spiked with declining concentrations of a test compound (dissolved in a PEG sea-water mixture). Sea lice inhibition (% of dead+damaged sea lice) was assessed after approximately 1 and 24 hours of continuous exposure in comparison to a negative (solvent) control group.

[3] = approx. 24 hours continuous exposure
[4] = test concentration 100 nM, approx. 24 hours continuous exposure
[5] = pre-adult/adult L. salmonis, assessed after approx. 1 and 24 hours, time of EC50 not stated

SMILES | inhibition at 0.1 µM [1, 4] [%] | other results
Cc1ccccc1NC(=O)c1cc(NC(=O)C2C(c3cc(Cl)cc(Cl)c3)C2(Cl)Cl)ccc1Cl (centres unmarked) [Compound 1000] |  | inhibition at 0.01 µM [1, 3]: 100%
Cc1ccc(NC(=O)C2C(c3cc(Cl)cc(Cl)c3)C2(Cl)Cl)cc1C(=O)Nc1ccc(F)cc1 (centres unmarked) [Compound 1001] | 100 | 
O=C(Nc1ccc(F)cc1)c1cc(NC(=O)C2C(c3cc(Cl)cc(Cl)c3)C2(Cl)Cl)ccc1F (centres unmarked) [Compound 1003] |  | inhibition at 0.1 µM ([1]; 24 h): ≥ 80%; EC50 [2]: 1 to 25 nM
O=C(Nc1ccccc1)c1cc(NC(=O)C2C(c3cc(Cl)cc(Cl)c3)C2(Cl)Cl)ccc1Cl (centres unmarked) [Compound 1004] |  | inhibition at 0.01 µM [1, 3]: 80%
N#Cc1cccc(NC(=O)c2cc(NC(=O)C3C(c4cc(Cl)cc(Cl)c4)C3(Cl)Cl)ccc2Cl)c1 (centres unmarked) [Compound 1005] | 100 | 
O=C(Nc1c(F)cc(F)cc1F)c1cc(NC(=O)C2C(c3cc(Cl)cc(Cl)c3)C2(Cl)Cl)ccc1Cl (centres unmarked) [Compound 1006] |  | EC50 [2, 5]: ≤ 1 nM
O=C(Nc1c(F)cccc1F)c1cc(NC(=O)C2C(c3cc(Cl)cc(Cl)c3)C2(Cl)Cl)ccc1Cl (centres unmarked) [Compound 1007] |  | inhibition at 0.01 µM [1, 3]: 80%; EC50 [2, 5]: 1 to 25 nM
O=C(Nc1cccnc1)c1cc(NC(=O)C2C(c3cc(Cl)cc(Cl)c3)C2(Cl)Cl)ccc1Cl (centres unmarked) [Compound 1008] | 100 | 
O=C(Nc1ccc(Cl)nc1)c1cc(NC(=O)C2C(c3cc(Cl)cc(Cl)c3)C2(Cl)Cl)ccc1Cl (centres unmarked) [Compound 1010] | 100 | 
N#Cc1ccc(NC(=O)c2cc(NC(=O)C3C(c4cc(Cl)cc(Cl)c4)C3(Cl)Cl)ccc2Cl)cn1 (centres unmarked) [Compound 1011] |  | inhibition at 0.01 µM [1, 3]: 100%
Cc1cc(Cl)cc(C2C(C(=O)Nc3ccc(Cl)c(C(=O)Nc4ccc(F)cc4)c3)C2(Cl)Cl)c1 (centres unmarked) [Compound 1016] | 100 | 
Cc1cc(Cl)cc(C2C(C(=O)Nc3ccc(Cl)c(C(=O)Nc4c(F)cccc4F)c3)C2(Cl)Cl)c1 (centres unmarked) [Compound 1018] | 100 | 
O=C(Nc1ccc(F)cc1)c1cc(NC(=O)C2C(c3cc(Cl)cc(Cl)c3)C2(Cl)Cl)ccc1Cl (centres unmarked) [Compound 1021] | 100 | 
CN(C(=O)c1cc(NC(=O)C2C(c3cc(Cl)cc(Cl)c3)C2(Cl)Cl)ccc1Cl)c1ccc(F)cc1 (centres unmarked) [Compound 1022] | ≥ 80 | 
N#Cc1cc(F)ccc1NC(=O)c1cc(NC(=O)C2C(c3cc(Cl)cc(Cl)c3)C2(Cl)Cl)ccc1Cl (centres unmarked) [Compound 1026] | 100 | 
O=C(Nc1ncc(F)cn1)c1cc(NC(=O)C2C(c3cc(Cl)cc(Cl)c3)C2(Cl)Cl)ccc1Cl (centres unmarked) [Compound 1028] | 100 | 
O=C(Nc1cccc(F)n1)c1cc(NC(=O)C2C(c3cc(Cl)cc(Cl)c3)C2(Cl)Cl)ccc1Cl (centres unmarked) [Compound 1030] | ≥ 80 | 
Cc1cc(F)cnc1NC(=O)c1cc(NC(=O)C2C(c3cc(Cl)cc(Cl)c3)C2(Cl)Cl)ccc1Cl (centres unmarked) [Compound 1031] | 100 | 
O=C(Nc1cncnc1)c1cc(NC(=O)C2C(c3cc(Cl)cc(Cl)c3)C2(Cl)Cl)ccc1Cl (centres unmarked) [Compound 1038] |  | inhibition at 0.01 µM [1, 3]: 80%
N#Cc1cccc(F)c1NC(=O)c1cc(NC(=O)C2C(c3cc(Cl)cc(Cl)c3)C2(Cl)Cl)ccc1Cl (centres unmarked) [Compound 1040] | 100 | 

SMILES | inhibition at 0.1 µM [1, 4] [%] | other results
O=C(Nc1ncc(F)cc1F)c1cc(NC(=O)[C@H]2[C@H](c3ccc(Cl)c(Cl)c3)C2(Cl)Cl)ccc1Cl [Compound 1041] |  | EC50 [2, 5]: 1 to 10 nM
O=C(Nc1ncc(F)cc1F)c1cc(NC(=O)[C@H]2[C@H](c3ccc(F)c(Cl)c3)C2(Cl)Cl)ccc1Cl [Compound 1042] |  | EC50 [2, 5]: 1 to 10 nM
Nc1cccc(NC(=O)c2cc(NC(=O)C3C(c4cc(Cl)cc(Cl)c4)C3(Cl)Cl)ccc2Cl)n1 (centres unmarked) [Compound 1045] | 100 | 
Nc1cccc(NC(=O)c2cc(NC(=O)C3C(c4ccc(F)c(Cl)c4)C3(Cl)Cl)ccc2Cl)n1 (centres unmarked) [Compound 1046] | 100 | 
N#Cc1cc(Cl)cc(C2C(C(=O)Nc3ccc(Cl)c(C(=O)Nc4ncc(F)cc4F)c3)C2(Cl)Cl)c1 (centres unmarked) [Compound 1048] | 100 | 
O=C(Nc1cncc([N+](=O)[O-])c1)c1cc(NC(=O)C2C(c3cc(Cl)cc(Cl)c3)C2(Cl)Cl)ccc1Cl (centres unmarked) [Compound 1051] | 100 | 
O=C(Nc1ccnc(Cl)c1)c1cc(NC(=O)C2C(c3cc(Cl)cc(Cl)c3)C2(Cl)Cl)ccc1Cl (centres unmarked) [Compound 1055] | ≥ 80 | 
O=C(Nc1ncc(F)c(I)c1F)c1cc(NC(=O)C2C(c3cc(Cl)cc(Cl)c3)C2(Cl)Cl)ccc1Cl (centres unmarked) [Compound 1060] | 100 | 
Cc1cc(NC(=O)c2cc(NC(=O)C3C(c4cc(Cl)cc(Cl)c4)C3(Cl)Cl)ccc2Cl)cnc1F (centres unmarked) [Compound 1064] | 100 | 
COc1cc(NC(=O)c2cc(NC(=O)C3C(c4cc(Cl)cc(Cl)c4)C3(Cl)Cl)ccc2Cl)ccn1 (centres unmarked) [Compound 1069] | 100 | 
COc1ccc(NC(=O)c2cc(NC(=O)C3C(c4cc(Cl)cc(Cl)c4)C3(Cl)Cl)ccc2Cl)cn1 (centres unmarked) [Compound 1075] | 100 | 
COc1ccc(NC(=O)c2cc(NC(=O)C3C(c4ccc(F)c(Cl)c4)C3(Cl)Cl)ccc2Cl)cn1 (centres unmarked) [Compound 1076] | ≥ 80 | 
O=C(Nc1ncc(F)cc1F)c1cc(NC(=O)C2C(c3cc(Cl)cc(C(F)F)c3)C2(Cl)Cl)ccc1Cl (centres unmarked) [Compound 1079] | 100 | 
O=C(Nc1ncc(F)cc1F)c1cc(NC(=O)C2C(c3ccc(Cl)c(C(F)F)c3)C2(Cl)Cl)ccc1Cl (centres unmarked) [Compound 1080] | 100 | 
O=C(Nc1ncc(F)cc1F)c1cc(NC(=O)C2C(c3cc(F)cc(C(F)F)c3)C2(Cl)Cl)ccc1Cl (centres unmarked) [Compound 1081] | 100 | 
O=C(Nc1ncc(F)cc1F)c1cc(NC(=O)C2C(c3ccc(F)c(C(F)F)c3)C2(Cl)Cl)ccc1Cl (centres unmarked) [Compound 1082] | 100 | 
O=C(Nc1ncc(F)cc1F)c1cc(NC(=O)C2C(c3ccc(C(F)F)c(Cl)c3)C2(Cl)Cl)ccc1Cl (centres unmarked) [Compound 1083] | 100 | 
O=C(Nc1ncc(F)cc1F)c1cc(NC(=O)C2C(c3cccc(C(F)F)c3)C2(Cl)Cl)ccc1Cl (centres unmarked) [Compound 1085] | 100 | 
O=C(Nc1ccc(F)cc1F)c1cc(NC(=O)[C@H]2[C@H](c3ccc(F)c(Cl)c3)C2(Cl)Cl)ccc1Cl [Compound 1087] |  | inhibition at 0.001 µM ([1]; 24 h): 100%; EC50 [2]: 1 to 25 nM
O=C(Nc1ccc(F)cc1)c1cc(NC(=O)[C@H]2[C@H](c3cc(Cl)cc(Cl)c3)C2(Cl)Cl)ccc1F [Compound 1090] |  | inhibition at 0.001 µM ([1]; 24 h): 100%; EC50 [2]: 1 to 10 nM

SMILES | inhibition at 0.1 µM [1, 4] [%] | other results
O=C(Nc1ccc(F)cc1F)c1cc(NC(=O)[C@H]2[C@H](c3cc(Cl)cc(Cl)c3)C2(Cl)Cl)ccc1F [Compound 1091] |  | EC50 [2, 5]: 1 to 10 nM
O=C(Nc1c(F)cc(F)cc1F)c1cc(NC(=O)[C@H]2[C@H](c3cc(Cl)cc(Cl)c3)C2(Cl)Cl)ccc1Cl [Compound 1092] |  | EC50 [2, 5]: 1 to 25 nM
O=C(Nc1ccc(F)cc1F)c1cc(NC(=O)[C@H]2[C@H](c3cc(F)c(F)c(F)c3)C2(Cl)Cl)ccc1Cl [Compound 1094] |  | EC50 [2, 5]: 1 to 10 nM
O=C(Nc1ncc(F)cc1F)c1cc(NC(=O)[C@H]2[C@H](c3cc(Cl)cc(Cl)c3)C2(Cl)Cl)ccc1Cl [Compound 1097] |  | EC50 [2, 5]: 1 to 10 nM
Cc1cc(NC(=O)c2cc(NC(=O)[C@H]3[C@H](c4cc(Cl)cc(Cl)c4)C3(Cl)Cl)ccc2Cl)ncc1F [Compound 1098] |  | EC50 [2, 5]: 1 to 10 nM
Nc1c(F)ccc(NC(=O)c2cc(NC(=O)C3C(c4cc(F)cc(C(F)(F)F)c4)C3(Cl)Cl)ccc2Cl)c1F (centres unmarked) [Compound 1132] | 100 | 
Nc1c(F)ccc(NC(=O)c2cc(NC(=O)C3C(c4cccc(F)c4)C3(Cl)Cl)ccc2Cl)c1F (centres unmarked) [Compound 1227] | 100 | 
Nc1c(F)ccc(NC(=O)c2cc(NC(=O)C3C(c4cccc(C(F)(F)F)c4)C3(Cl)Cl)ccc2Cl)c1F (centres unmarked) [Compound 1243] | 100 | 
Nc1c(F)ccc(NC(=O)c2cc(NC(=O)C3C(c4cccc(Cl)c4)C3(Cl)Cl)ccc2Cl)c1F (centres unmarked) [Compound 1248] | 100 | 
O=C(Nc1cnc(F)cc1F)c1cc(NC(=O)[C@H]2[C@H](c3cc(Cl)cc(Cl)c3)C2(Cl)Cl)ccc1Cl [Compound 1366] |  | EC50 [2, 5]: 1 to 10 nM
O=C(Nc1c(F)ccnc1F)c1cc(NC(=O)[C@H]2[C@H](c3cc(Cl)cc(Cl)c3)C2(Cl)Cl)ccc1Cl [Compound 1367] |  | EC50 [2, 5]: 1 to 10 nM
O=C(Nc1ncc(F)cn1)c1cc(NC(=O)[C@H]2[C@H](c3cc(Cl)cc(Cl)c3)C2(Cl)Cl)ccc1Cl [Compound 1372] |  | EC50 [2, 5]: 1 to 10 nM
O=C(Nc1ccc2nccn2c1)c1cc(NC(=O)C2C(c3cc(Cl)cc(Cl)c3)C2(Cl)Cl)ccc1Cl (centres unmarked) [Compound 1373] | 100 | 
O=C(Nc1cnc(F)cc1F)c1cc(NC(=O)[C@H]2[C@H](c3cc(Cl)c(Cl)c(Cl)c3)C2(Cl)Cl)ccc1Cl [Compound 1380] |  | EC50 [2, 5]: 1 to 10 nM
O=C(Nc1ncc(F)cc1F)c1c(Cl)ccc(NC(=O)C2C(c3cc(Cl)cc(Cl)c3)C2(Cl)Cl)c1F (centres unmarked) [Compound 1381] | 100 | 
Cc1ccc(NC(=O)C2C(c3ccc(Cl)c(Cl)c3)C2(Cl)Cl)c(F)c1C(=O)Nc1ncc(F)cc1F (centres unmarked) [Compound 1382] | 100 | 
O=C(Nc1ncc(F)cc1F)c1cc(NC(=O)C2C(c3cc(Cl)c(Cl)c(Cl)c3)C2(Cl)Cl)ccc1Cl (centres unmarked) [Compound 1384] | 100 | 
O=C(Nc1ccc(F)cc1F)c1cc(NC(=O)C2C(c3cc(C(F)(F)F)cc(C(F)(F)F)c3)C2(Cl)Cl)ccc1Cl (centres unmarked) [Compound 1386] |  | inhibition at 0.01 µM [1, 3]: 80%

From US20240316045A1, “CYCLOPROPYLAMIDE COMPOUNDS AGAINST PARASITES IN FISH” (Intervet Inc., priority 2021, published 2024)
